# Test results taken from ChEMBL document CHEMBL4420062, “Tfpi inhibitors and methods of use” (2013).
# Calls of active or inactive are those of the source. The calls are words filed in the database; no cut-off is given here.
# Columns and labels:
# Callithrix = conditions: Plasma, 10 uM
# [1] = Stability in human plasma assessed as parent compound remaining after 24 hrs; assay type: ADME, cell-free; conditions: read-out: Stability
# [2] = Stability in mouse plasma assessed as parent compound remaining after 24 hrs; assay type: ADME, cell-free; conditions: read-out: Stability
SMILES,inhibition (Callithrix),remaining at 24 h [1] [%],remaining at 24 h [2] [%]
CSCC[C@@H]1NC(=O)[C@H](C)NC(=O)[C@@H](NC(=O)[C@H](Cc2cnc[nH]2)NC(=O)[C@H](Cc2c[nH]c3ccccc23)NC(=O)[C@H](CCCCN)NC(=O)[C@H](Cc2ccc(O)cc2)NC(=O)[C@H](Cc2ccc(O)cc2)NC(=O)[C@H](CO)NC(C)=O)CSSC[C@@H](C(=O)N[C@H](C(=O)N[C@@H](Cc2c[nH]c3ccccc23)C(=O)N[C@H](C(=O)N[C@@H](CCCCN)C(=O)N[C@@H](Cc2ccccc2)C(N)=O)C(C)C)C(C)C)NC(=O)[C@H]([C@@H](C)O)NC(=O)[C@H](CCSC)NC(=O)[C@H]([C@@H](C)O)NC(=O)CNC(=O)[C@@H](CCCCN)NC(=O)[C@H](CCSC)NC(=O)[C@H](CC(=O)O)NC(=O)[C@H](CCCNC(=N)N)NC1=O,inactive,–,–
CC(=O)N[C@@H](Cc1ccccc1)C(=O)N[C@@H](CCC(N)=O)C(=O)N[C@@H](CO)C(=O)N[C@@H](CCCCN)C(=O)N1CCC[C@@H]1C(=O)N[C@@H](CC(N)=O)C(=O)N[C@H](C(=O)N[C@@H](Cc1ccc2ccccc2c1)C(=O)N[C@H](C(=O)N[C@@H](CC(=O)O)C(=O)N[C@H](C)C(=O)N[C@@H](Cc1ccc(O)cc1)C(=O)N[C@@H](Cc1ccccc1)C(=O)N[C@@H](CCC(=O)O)C(=O)N[C@@H](CCCNC(=N)N)C(=O)N[C@@H](CC(C)C)C(=O)NC(C)(C)C(=O)N[C@@H](C)C(=O)N[C@@H](CCCCN)C(=O)N[C@@H](CC(C)C)C(N)=O)C(C)(C)C)C(C)C,–,88.8,51.1
CC(=O)N[C@@H](Cc1ccccc1)C(=O)N[C@@H](CCC(N)=O)C(=O)N[C@@H](CO)C(=O)N[C@@H](CCCCN)C(=O)N1CCC[C@@H]1C(=O)N[C@@H](CC(N)=O)C(=O)N[C@H](C(=O)N[C@@H](Cc1cnc[nH]1)C(=O)N[C@H](C(=O)N1CCC[C@H]1C(=O)NCC(=O)N[C@@H](Cc1ccc(O)cc1)C(=O)N[C@@H](Cc1ccccc1)C(=O)NC(C)(C)C(=O)N[C@@H](CCCNC(=N)N)C(=O)N[C@@H](CC(C)C)C(=O)NC(C)(C)C(=O)N[C@@H](C)C(=O)N[C@@H](CCCCN)C(=O)N[C@@H](CC(C)C)C(N)=O)C(C)C)C(C)C,–,99.5,31.2
CC(=O)N[C@@H](Cc1cccs1)C(=O)N[C@@H](CCC(N)=O)C(=O)N[C@@H](CO)C(=O)N[C@@H](CCCCN)C(=O)N1CCC[C@@H]1C(=O)N[C@@H](CC(N)=O)C(=O)N[C@H](C(=O)N[C@@H](Cc1cnc[nH]1)C(=O)N[C@H](C(=O)N[C@@H](CC(=O)O)C(=O)NCC(=O)N[C@@H](Cc1ccc(O)cc1)C(=O)N[C@@H](Cc1ccccc1)C(=O)N[C@@H](CCC(=O)O)C(=O)N[C@@H](CCCNC(=N)N)C(=O)N[C@@H](CC(C)C)C(=O)NC(C)(C)C(=O)N[C@@H](C)C(=O)N[C@@H](CCCCN)C(=O)N[C@@H](CC(C)C)C(N)=O)C(C)C)C(C)C,–,19.8,1.2
CC(C)C[C@@H]1NC(=O)[C@H](CCCCN)NC(=O)[C@H](C)NC(=O)C(C)(C)NC(=O)[C@H](CC(C)C)NC(=O)[C@H](CCCNC(=N)N)NC(=O)[C@H](CCC(=O)O)NC(=O)[C@H](Cc2ccccc2)NC(=O)[C@H](Cc2ccc(O)cc2)NC(=O)CNC(=O)[C@H](CC(=O)O)NC(=O)[C@H](C(C)C)NC(=O)[C@H](Cc2cnc[nH]2)NC(=O)[C@H](C(C)C)NC(=O)[C@H](CC(N)=O)NC(=O)[C@H]2CCCN2C(=O)[C@H](CCCCN)NC(=O)[C@H](CO)NC(=O)[C@H](CCC(N)=O)NC(=O)[C@H](Cc2ccccc2)NC(=O)CCOCCOCCOCCNC1=O,–,62.8,38.1
CC(=O)NCSC[C@H](NC(=O)[C@H]1CCCN1C(=O)[C@H](CCCCN)NC(=O)[C@H](CO)NC(=O)[C@H](CCC(N)=O)NC(=O)[C@H](Cc1ccccc1)NC(C)=O)C(=O)N[C@H](C(=O)N[C@@H](Cc1c[nH]cn1)C(=O)N[C@H](C(=O)N[C@@H](CC(=O)O)C(=O)NCC(=O)N[C@@H](Cc1ccc(O)cc1)C(=O)N[C@@H](Cc1ccccc1)C(=O)N[C@@H](CCC(=O)O)C(=O)N[C@@H](CCCNC(=N)N)C(=O)N[C@@H](CC(C)C)C(=O)NC(C)(C)C(=O)N[C@@H](C)C(=O)N[C@@H](CCCCN)C(=O)N[C@@H](CC(C)C)C(N)=O)C(C)(C)C)C(C)C,–,81.2,36.1
CC(=O)N[C@@H](Cc1ccccc1)C(=O)N[C@@H](CCC(N)=O)C(=O)N[C@@H](CO)C(=O)N[C@@H](CCCCN)C(=O)N1CCC[C@@H]1C(=O)N[C@@H](CC(N)=O)C(=O)N[C@H](C(=O)N[C@@H](Cc1cnc[nH]1)C(=O)N[C@H](C(=O)N[C@@H](CC(=O)O)C(=O)NCC(=O)N[C@@H](Cc1ccc(O)cc1)C(=O)N[C@@H](Cc1ccccc1)C(=O)N[C@@H](CCC(=O)O)C(=O)N[C@@H](CCCNC(=N)N)C(=O)N[C@@H](CC(C)C)C(=O)NC(C)(C)C(=O)N[C@@H](CC(C)C)C(=O)N[C@@H](CCCCN)C(=O)N[C@@H](CC(C)C)C(N)=O)C(C)(C)C)C(C)C,–,78.7,13.7
CC(=O)N[C@@H](Cc1ccccc1)C(=O)N[C@@H](CCC(N)=O)C(=O)N[C@@H](CO)C(=O)N[C@@H](CCCCN)C(=O)N1CCC[C@@H]1C(=O)N[C@@H](CC(N)=O)C(=O)N[C@H](C(=O)N[C@@H](Cc1cnc[nH]1)C(=O)N[C@H](C(=O)N[C@@H](CC(=O)O)C(=O)NCC(=O)N[C@@H](Cc1ccc(O)cc1)C(=O)N[C@@H](Cc1csc2ccccc12)C(=O)N[C@@H](CCC(=O)O)C(=O)N[C@@H](CCCNC(=N)N)C(=O)N[C@@H](CC(C)C)C(=O)NC(C)(C)C(=O)N[C@@H](C)C(=O)N[C@@H](CCCCN)C(=O)N[C@@H](CC(C)C)C(N)=O)C(C)C)C(C)C,–,46.6,6.1
CCCCCCCCCCCCCCCC(=O)NCCCOCCOCCOCCCNC(=O)CCNC(=O)CCC(=O)NCCCC[C@H](NC(=O)[C@H](CC(C)C)NC(=O)[C@H](CCCCN)NC(=O)[C@H](C)NC(=O)C(C)(C)NC(=O)[C@H](CC(C)C)NC(=O)[C@H](CCCNC(=N)N)NC(=O)[C@H](CCC(=O)O)NC(=O)[C@H](Cc1ccccc1)NC(=O)[C@H](Cc1ccc(O)cc1)NC(=O)[C@@H](C)NC(=O)[C@H](CC(=O)O)NC(=O)[C@@H](NC(=O)[C@H](Cc1cnc[nH]1)NC(=O)[C@@H](NC(=O)[C@H](CSCNC(C)=O)NC(=O)[C@H]1CCCN1C(=O)[C@H](CCCCN)NC(=O)[C@H](CO)NC(=O)[C@H](CCC(N)=O)NC(=O)[C@H](Cc1ccccc1)NC(=O)CCCCC)C(C)C)C(C)(C)C)C(N)=O,–,108,67.5
CC(=O)N[C@@H](Cc1cccc2ccccc12)C(=O)N[C@@H](CCC(N)=O)C(=O)N[C@@H](CO)C(=O)N[C@@H](CCCCN)C(=O)N1CCC[C@@H]1C(=O)N[C@@H](CC(N)=O)C(=O)N[C@H](C(=O)N[C@@H](Cc1cnc[nH]1)C(=O)N[C@H](C(=O)N[C@@H](CC(=O)O)C(=O)NCC(=O)N[C@@H](Cc1ccc(O)cc1)C(=O)N[C@@H](Cc1ccccc1)C(=O)N[C@@H](CCC(=O)O)C(=O)N[C@@H](CCCNC(=N)N)C(=O)N[C@@H](CC(C)C)C(=O)NC(C)(C)C(=O)N[C@@H](C)C(=O)N[C@@H](CCCCN)C(=O)N[C@@H](CC(C)C)C(N)=O)C(C)C)C(C)C,–,19.3,0
CC(=O)N[C@@H](Cc1ccccc1)C(=O)N[C@@H](CCC(N)=O)C(=O)N[C@@H](CO)C(=O)N[C@@H](CCCCN)C(=O)N1CCC[C@@H]1C(=O)N[C@@H](CC(N)=O)C(=O)N[C@H](C(=O)N[C@@H](Cc1cnc[nH]1)C(=O)N[C@H](C(=O)N[C@@H](CC(=O)O)C(=O)NCC(=O)N[C@@H](Cc1ccc(O)cc1)C(=O)N[C@@H](Cc1ccccc1)C(=O)N[C@@H](CCC(=O)O)C(=O)N[C@@H](CCCNC(=N)N)C(=O)N[C@@H](CC(C)C)C(=O)NC(C)(C)C(=O)N[C@@H](C)C(=O)N[C@@H](CCCCN)C(=O)N[C@@H](CC(C)C)C(N)=O)c1ccccc1)C(C)C,–,34.7,4.8
CCCCCCCCCCCCCC(=O)NCCCOCCOCCOCCCNC(=O)CCNCCCC[C@H](NC(=O)[C@H](CC(C)C)NC(=O)[C@H](CCCCN)NC(=O)[C@H](C)NC(=O)C(C)(C)NC(=O)[C@H](CC(C)C)NC(=O)[C@H](CCCNC(=N)N)NC(=O)[C@H](CCC(=O)O)NC(=O)[C@H](Cc1ccccc1)NC(=O)[C@H](Cc1ccc(O)cc1)NC(=O)[C@@H](C)NC(=O)[C@H](CC(=O)O)NC(=O)[C@@H](NC(=O)[C@H](Cc1cnc[nH]1)NC(=O)[C@@H](NC(=O)[C@H](CSCNC(C)=O)NC(=O)[C@H]1CCCN1C(=O)[C@H](CCCCN)NC(=O)[C@H](CO)NC(=O)[C@H](CCC(N)=O)NC(=O)[C@H](Cc1ccccc1)NC(=O)CCCCC)C(C)C)C(C)(C)C)C(N)=O,–,96.5,67.5
CC(=O)N[C@@H](Cc1csc2ccccc12)C(=O)N[C@@H](CCC(N)=O)C(=O)N[C@@H](CO)C(=O)N[C@@H](CCCCN)C(=O)N1CCC[C@@H]1C(=O)N[C@@H](CC(N)=O)C(=O)N[C@H](C(=O)N[C@@H](Cc1cnc[nH]1)C(=O)N[C@H](C(=O)N[C@@H](CC(=O)O)C(=O)NCC(=O)N[C@@H](Cc1ccc(O)cc1)C(=O)N[C@@H](Cc1ccccc1)C(=O)N[C@@H](CCC(=O)O)C(=O)N[C@@H](CCCNC(=N)N)C(=O)N[C@@H](CC(C)C)C(=O)NC(C)(C)C(=O)N[C@@H](C)C(=O)N[C@@H](CCCCN)C(=O)N[C@@H](CC(C)C)C(N)=O)C(C)C)C(C)C,–,18.6,0
CC(=O)N[C@@H](Cc1ccccc1)C(=O)N[C@@H](CCC(N)=O)C(=O)N[C@@H](CO)C(=O)N[C@@H](CCCCN)C(=O)N1CCC[C@@H]1C(=O)N[C@@H](CC(N)=O)C(=O)N[C@H](C(=O)N[C@@H](Cc1cnc[nH]1)C(=O)N[C@H](C(=O)N[C@@H](CC(=O)O)C(=O)N[C@@H]1CSSCC[C@@H](C(=O)N[C@@H](CCCNC(=N)N)C(=O)N[C@@H](CC(C)C)C(=O)N[C@@H](C)C(=O)N[C@@H](C)C(=O)N[C@@H](CCCCN)C(=O)N[C@@H](CC(C)C)C(N)=O)NC(=O)[C@H](Cc2ccccc2)NC(=O)[C@H](Cc2ccc(O)cc2)NC1=O)C(C)(C)C)C(C)C,–,61.5,11.1
